Experimental findings from US11344554B2, “Animal and human anti-malarial agents” (Celgene Corporation, priority 2016, dated 2022) are described below.

The experiment concerns Plasmodium falciparum. Put plainly: Plasmodium falciparum in vitro [3H]-hypoxanthine parasite growth inhibition assay. In kind it is cell-based. Conditions: Erythrocyte, P. falciparum asexual blood stage parasites in human erythrocytes, [3H]-hypoxanthine uptake, read-out: Act Class (IC50 activity level).
Turning to `FC(F)(F)c1cccc(Nc2nc3cnc(NC4CCOCC4)nc3n2C2CCNCC2)c1` [Cpd 46, 9-(piperidin-4-yl)-N2-(tetrahydro-2H-pyran-4-yl)-N8-(3-(trifluoromethyl)phenyl)-9H-purine-2,8-diamine], the IC50 – broadly, the midpoint of a concentration-inhibition curve – lay within 500 to 1200 nM.
As for `CC(C)(C)Nc1ncc2nc(Nc3cccc(Cl)c3F)n(C3CCNCC3)c2n1` [Cpd 47, N2-tert-butyl-N8-(3-chloro-2-fluorophenyl)-9-(piperidin-4-yl)-9H-purine-2,8-diamine], the figure is 500 to 1200 nM.
As for `CC(C)(C)Nc1ncc2nc(Nc3cc(Cl)cc(OC(F)(F)F)c3)n(C3CCNCC3)c2n1` [Cpd 48, N2-tert-butyl-N8-(3-chloro-5-(trifluoromethoxy)phenyl)-9-(piperidin-4-yl)-9H-purine-2,8-diamine], the figure is less than 100 nM; as for `CC(C)(C)Nc1ncc2nc(Nc3cc(C(F)(F)F)cc(C(F)(F)F)c3)n(C3CCNCC3)c2n1` [Cpd 49, N8-(3,5-bis(trifluoromethyl)phenyl)-N2-tert-butyl-9-(piperidin-4-yl)-9H-purine-2,8-diamine], less than 100 nM; as for `CC(C)(C)Nc1ncc2nc(Nc3cccc(C#N)c3)n(C3CCNCC3)c2n1` [Cpd 50, 3-(2-(tert-butylamino)-9-(piperidin-4-yl)-9H-purin-8-ylamino)benzonitrile], 200 to 500 nM.
In the case of `FC(F)(F)c1cc(Cl)cc(Nc2nc3cnc(NC4CCOCC4)nc3n2C2CCNCC2)c1` [Cpd 51, N8-(3-chloro-5-(trifluoromethyl)phenyl)-9-(piperidin-4-yl)-N2-(tetrahydro-2H-pyran-4-yl)-9H-purine-2,8-diamine], the IC50 was 100 to 200 nM.
In the case of `FC(F)(F)c1cc(Cl)cc(Nc2nc3cnc(NC4CCC4)nc3n2C2CCNCC2)c1` [Cpd 52, N8-(3-chloro-5-(trifluoromethyl)phenyl)-N2-cyclobutyl-9-(piperidin-4-yl)-9H-purine-2,8-diamine], the half-inhibitory concentration (IC50) is less than 100 nM.
In the case of `FC(F)(F)c1cc(Cl)cc(Nc2nc3cnc(NC4CCCC4)nc3n2C2CCNCC2)c1` [Cpd 53, N8-(3-chloro-5-(trifluoromethyl)phenyl)-N2-cyclopentyl-9-(piperidin-4-yl)-9H-purine-2,8-diamine], the IC50 was less than 100 nM.
For the compound `CC1(Nc2ncc3nc(Nc4cc(Cl)cc(C(F)(F)F)c4)n(C4CCNCC4)c3n2)CCOCC1` [Cpd 54, N8-(3-chloro-5-(trifluoromethyl)phenyl)-N2-(4-methyltetrahydro-2H-pyran-4-yl)-9-(piperidin-4-yl)-9H-purine-2,8-diamine], the IC50 was less than 100 nM.
For `CC1(Nc2ncc3nc(Nc4cccc(OC(F)(F)F)c4)n(C4CCNCC4)c3n2)CCOCC1` [Cpd 55, N2-(4-methyltetrahydro-2H-pyran-4-yl)-9-(piperidin-4-yl)-N8-(3-(trifluoromethoxy)phenyl)-9H-purine-2,8-diamine], the IC50 was 100 to 200 nM.
For the compound `CC1(Nc2ncc3nc(Nc4cc(F)cc(Cl)c4)n(C4CCNCC4)c3n2)CCOCC1` [Cpd 56, N8-(3-chloro-5-fluorophenyl)-N2-(4-methyltetrahydro-2H-pyran-4-yl)-9-(piperidin-4-yl)-9H-purine-2,8-diamine], the IC50 is less than 100 nM.
In the case of `CC1(Nc2ncc3nc(Nc4cccc(C(F)F)c4)n(C4CCNCC4)c3n2)CCOCC1` [Cpd 57, N8-(3-(difluoromethyl)phenyl)-N2-(4-methyltetrahydro-2H-pyran-4-yl)-9-(piperidin-4-yl)-9H-purine-2,8-diamine] it was 500 to 1200 nM.
Turning to `CC1(Nc2ncc3nc(Nc4cccc(C(F)(F)F)c4)n(CCC4CCNC4)c3n2)CCOCC1` (stereo not drawn) [Cpd 58, N2-(4-methyltetrahydro-2H-pyran-4-yl)-9-(2-(pyrrolidin-3-yl)ethyl)-N8-(3-(trifluoromethyl)phenyl)-9H-purine-2,8-diamine], the half-maximal inhibitory concentration (IC50) lay in the range of 200 to 500 nM.
In the case of `CC1(Nc2ncc3nc(Nc4cccc(C(F)(F)F)c4)n(C4CCNCC4)c3n2)CCCC1` [Cpd 59, N2-(1-methylcyclopentyl)-9-(piperidin-4-yl)-N8-(3-(trifluoromethyl)phenyl)-9H-purine-2,8-diamine] it was less than 100 nM; in that of `CC(C)(C)Nc1ncc2nc(Nc3cc(Cl)cc(C(F)(F)F)c3)n(C3CCN(CCN)C3)c2n1` (stereo not drawn) [Cpd 60, 9-(1-(2-aminoethyl)pyrrolidin-3-yl)-N2-tert-butyl-N8-(3-chloro-5-(trifluoromethyl)phenyl)-9H-purine-2,8-diamine], 200 to 500 nM; in that of `CC1(Nc2ncc3nc(Nc4cc(Cl)cc(Cl)c4)n(C4CCNCC4)c3n2)CCOCC1` [Cpd 61, N8-(3,5-dichlorophenyl)-N2-(4-methyltetrahydro-2H-pyran-4-yl)-9-(piperidin-4-yl)-9H-purine-2,8-diamine], less than 100 nM.
In the case of `Fc1cc(Cl)cc(Nc2nc3cnc(NC4CC4)nc3n2C2CCNCC2)c1` [Cpd 62, N8-(3-chloro-5-fluorophenyl)-N2-cyclopropyl-9-(piperidin-4-yl)-9H-purine-2,8-diamine] it was 100 to 200 nM; in that of `CC(C)Nc1ncc2nc(Nc3cc(F)cc(Cl)c3)n(C3CCNCC3)c2n1` [Cpd 63, N8-(3-chloro-5-fluorophenyl)-N2-isopropyl-9-(piperidin-4-yl)-9H-purine-2,8-diamine], less than 100 nM; in that of `CC1(Nc2ncc3nc(Nc4cc(F)cc(Cl)c4)n(C4CCNCC4)c3n2)CC1` [Cpd 64, N8-(3-chloro-5-fluorophenyl)-N2-(1-methylcyclopropyl)-9-(piperidin-4-yl)-9H-purine-2,8-diamine], less than 100 nM.
As for `CC(C)Nc1ncc2nc(Nc3ccc(Cl)c(Cl)c3)n(C3CCNCC3)c2n1` [Cpd 65, N8-(3,4-dichlorophenyl)-N2-isopropyl-9-(piperidin-4-yl)-9H-purine-2,8-diamine], the figure is less than 100 nM.
Regarding `CC(C)Nc1ncc2nc(Nc3cccc(C(F)(F)F)c3)n(C3CCNCC3)c2n1` [Cpd 66, N2-isopropyl-9-(piperidin-4-yl)-N8-(3-(trifluoromethyl)phenyl)-9H-purine-2,8-diamine], the IC50 was in the range of 100 to 200 nM.
As for `CC1(Nc2ncc3nc(Nc4cc(Cl)cc(C(F)(F)F)c4)n(C4CCNCC4)c3n2)CCCC1` [Cpd 68, N8-(3-chloro-5-(trifluoromethyl)phenyl)-N2-(1-methylcyclopentyl)-9-(piperidin-4-yl)-9H-purine-2,8-diamine], the figure is less than 100 nM.
As for `CC1(Nc2ncc3nc(Nc4cc(Cl)cc(C(F)(F)F)c4)n(C4CCNCC4)c3n2)CCC1` [Cpd 69, N8-(3-chloro-5-(trifluoromethyl)phenyl)-N2-(1-methylcyclobutyl)-9-(piperidin-4-yl)-9H-purine-2,8-diamine], the figure is less than 100 nM; as for `CC(C)(C)Nc1ncc2nc(Nc3cccc(C(F)(F)F)c3)n(C3CCC4CNCC4C3)c2n1` (stereo not drawn) [Cpd 78, N2-tert-butyl-9-(octahydro-1H-isoindol-5-yl)-N8-(3-(trifluoromethyl)phenyl)-9H-purine-2,8-diamine], 500 to 1200 nM.
As for `CC(C)Nc1ncc2nc(Nc3ccc(Cl)c(C(F)(F)F)c3)n(C3CCNCC3)c2n1` [Cpd 79, N8-(4-chloro-3-(trifluoromethyl)phenyl)-N2-isopropyl-9-(piperidin-4-yl)-9H-purine-2,8-diamine], the figure is 100 to 200 nM; as for `FC(F)(F)c1cc(Nc2nc3cnc(NC4CC4)nc3n2C2CCNCC2)ccc1Cl` [Cpd 80, N8-(4-chloro-3-(trifluoromethyl)phenyl)-N2-cyclopropyl-9-(piperidin-4-yl)-9H-purine-2,8-diamine], 200 to 500 nM; as for `FC(F)(F)c1ccc(Nc2nc3cnc(NC4CC4)nc3n2C2CCNCC2)cc1Cl` [Cpd 81, N8-(3-chloro-4-(trifluoromethyl)phenyl)-N2-cyclopropyl-9-(piperidin-4-yl)-9H-purine-2,8-diamine], 200 to 500 nM.
With `CC(C)(C)Nc1ncc2nc(Nc3ccc(C(F)(F)F)c(Cl)c3)n(C3CCNCC3)c2n1` [Cpd 82, N2-tert-butyl-N8-(3-chloro-4-(trifluoromethyl)phenyl)-9-(piperidin-4-yl)-9H-purine-2,8-diamine], the IC50 is 200 to 500 nM.
Turning to `FC(F)(F)c1ccc(Nc2nc3cnc(NC4CCC4)nc3n2C2CCNCC2)cc1Cl` [Cpd 83, N8-(3-chloro-4-(trifluoromethyl)phenyl)-N2-cyclobutyl-9-(piperidin-4-yl)-9H-purine-2,8-diamine], the IC50 was 100 to 200 nM.
For the compound `CC(C)Nc1ncc2nc(Nc3cc(C(F)(F)F)cc(C(F)(F)F)c3)n(C3CCNCC3)c2n1` [Cpd 84, N8-(3,5-bis(trifluoromethyl)phenyl)-N2-isopropyl-9-(piperidin-4-yl)-9H-purine-2,8-diamine], the IC50 was less than 100 nM.
Turning to `FC(F)(F)c1cc(Nc2nc3cnc(NC4CCCC4)nc3n2C2CCNCC2)cc(C(F)(F)F)c1` [Cpd 85, N8-(3,5-bis(trifluoromethyl)phenyl)-N2-cyclopentyl-9-(piperidin-4-yl)-9H-purine-2,8-diamine], the IC50 was less than 100 nM.
With `FC(F)(F)c1cc(Nc2nc3cnc(NC4CCC4)nc3n2C2CCNCC2)cc(C(F)(F)F)c1` [Cpd 86, N8-(3,5-bis(trifluoromethyl)phenyl)-N2-cyclobutyl-9-(piperidin-4-yl)-9H-purine-2,8-diamine], the IC50 is 100 to 200 nM.
As for `FC(F)(F)c1cc(Nc2nc3cnc(NC4CCCC4)nc3n2C2CCNCC2)ccc1Cl` [Cpd 87, N8-(4-chloro-3-(trifluoromethyl)phenyl)-N2-cyclopentyl-9-(piperidin-4-yl)-9H-purine-2,8-diamine], the figure is 100 to 200 nM.
As for `CC(C)(C)Nc1ncc2nc(Nc3ccc(Cl)c(C(F)(F)F)c3)n(C3CCNCC3)c2n1` [Cpd 88, N2-tert-butyl-N8-(4-chloro-3-(trifluoromethyl)phenyl)-9-(piperidin-4-yl)-9H-purine-2,8-diamine], the figure is 100 to 200 nM.
As for `CC1(Nc2ncc3nc(Nc4ccc(Cl)c(C(F)(F)F)c4)n(C4CCNCC4)c3n2)CC1` [Cpd 89, N8-(4-chloro-3-(trifluoromethyl)phenyl)-N2-(1-methylcyclopropyl)-9-(piperidin-4-yl)-9H-purine-2,8-diamine], the figure is 200 to 500 nM; as for `CC1(Nc2ncc3nc(Nc4ccc(Cl)c(C(F)(F)F)c4)n(C4CCNCC4)c3n2)CCCC1` [Cpd 90, N8-(4-chloro-3-(trifluoromethyl)phenyl)-N2-(1-methylcyclopentyl)-9-(piperidin-4-yl)-9H-purine-2,8-diamine], 100 to 200 nM.
